Data taken from paper PMC9320628, “Analysis of Structural Determinants of Peptide MS 9a-1 Essential for Potentiating of TRPA1 Channel” (Marine Drugs, 2022).
Where two headings read alike, the source gives them in different places. Where a SMILES comes first, the peptide text is derived from it. Bridges are numbered along the chain shown (N, C = ends).

What was measured:
[1] = molecular target: T1, rat TRPA1 (Q6RI86) channel (Rattus norvegicus, UniProt Q6RI86); test: Potentiation of diclofenac-induced TRPA1 currents, two-electrode recordings in Xenopus laevis oocytes; type: cell-based; conditions: for Maximal potentiating effect lower than that of Ms 9a-1: compared to Ms 9a-1, inward and outward currents; for Diclofenac-induced inward current potentiated up to (maximal, % of control) / EC50 / Diclofenac-induced outward current potentiated up to (maximal, % of control): oocytes expressing rat TRPA1, diclofenac 300 μM; for EC50: Ca2+-free solution, 22–24 °C, mean ± SD of 4–7 measurements, SD
T1 construct: expressed in transfected cells; host or cells: Xenopus laevis oocytes injected with cRNA
Method: Peptide activity was measured in Xenopus laevis oocytes, heterologously expressing the TRPA1 channel (Figure 2 and Figure S2). Recordings occurred in repeated 4 s pulses of voltage ramp from −100 mV to 100 mV over 200 ms, whereby inward current was measured at −100 mV and outward at 100 mV.
Oocytes expressing rat TRPA1 (Q6RI86) channel were prepared as described previously. Experiments were approved by the Institutional Animal Care and Use Committee (IACUC) of the Shemyakin–Ovchinnikov Institute of Bioorganic Chemistry Russian Academy of Sciences (Protocol Number 267/2018; date of approval: 28 February 2019). Female frogs were anaesthetized with 0.17% solution of tricaine methane sulfonate (MS222) and oocytes were surgically removed. cRNA was synthesized using a HiScribe™ T7 High Yield RNA Synthesis Kit (New England Biolabs, Ipswich, MA, USA) according to the manufacturers’ protocol for capped transcripts and then injected in X. laevis oocytes. The oocytes were kept for 2–7 days at 16–17 °C in sterile ND-96 medium (96 mM NaCl, 2 mM KCl, 1.8 mM CaCl2, 1 mM MgCl2, 5 mM HEPES, pH 7.4) supplemented with 50 μg/mL gentamycin. Electrophysiological recordings were carried out at room temperature (22–24 °C) in Ca^2+-free solution (96 mM NaCl, 2 mM KCl, 1 mM MgCl2, 5 mM HEPES, pH 7.4) using the GeneClamp500 amplifier (Axon Instruments, Union City, CA, USA) at a holding potential of −50 mV. The data were filtered at 20 Hz and digitized at 100 Hz by an AD converter L780 (LCard, Moscow, Russia) using in-house software. Oocytes were impaled with two glass microelectrodes filled with 3 M KCl. Inward/outward currents were recorded at repeated every 4 seconds a stimuli comprising step from holding potential to −100 mV for 80 ms followed by voltage ramp from −100 mV to +100 mV for 200 ms and final step to holding potential. Diclofenac (300 μM in Ca^2+-free solution) was used to activate the channel.

TRPA1-expressing oocytes = conditions: cited from earlier work
Method: Oocytes expressing rat TRPA1 (Q6RI86) channel were prepared as described previously. Experiments were approved by the Institutional Animal Care and Use Committee (IACUC) of the Shemyakin–Ovchinnikov Institute of Bioorganic Chemistry Russian Academy of Sciences (Protocol Number 267/2018; date of approval: 28 February 2019). Female frogs were anaesthetized with 0.17% solution of tricaine methane sulfonate (MS222) and oocytes were surgically removed. cRNA was synthesized using a HiScribe™ T7 High Yield RNA Synthesis Kit (New England Biolabs, Ipswich, MA, USA) according to the manufacturers’ ...

[2] = cited from earlier work
Description: We compared the efficacy of peptides Ms 9a-1, C-Ms, N-Ms, Ms 9a-2, and Ms 9a-3 in models of AITC- ...

[3] = inward current at −100 mV, read-out: EC50 of potentiation of diclofenac-induced inward TRPA1 current
[4] = outward current at +100 mV, read-out: EC50 of potentiation of diclofenac-induced outward TRPA1 current

T1 sequence (Q6RI86 whole entry): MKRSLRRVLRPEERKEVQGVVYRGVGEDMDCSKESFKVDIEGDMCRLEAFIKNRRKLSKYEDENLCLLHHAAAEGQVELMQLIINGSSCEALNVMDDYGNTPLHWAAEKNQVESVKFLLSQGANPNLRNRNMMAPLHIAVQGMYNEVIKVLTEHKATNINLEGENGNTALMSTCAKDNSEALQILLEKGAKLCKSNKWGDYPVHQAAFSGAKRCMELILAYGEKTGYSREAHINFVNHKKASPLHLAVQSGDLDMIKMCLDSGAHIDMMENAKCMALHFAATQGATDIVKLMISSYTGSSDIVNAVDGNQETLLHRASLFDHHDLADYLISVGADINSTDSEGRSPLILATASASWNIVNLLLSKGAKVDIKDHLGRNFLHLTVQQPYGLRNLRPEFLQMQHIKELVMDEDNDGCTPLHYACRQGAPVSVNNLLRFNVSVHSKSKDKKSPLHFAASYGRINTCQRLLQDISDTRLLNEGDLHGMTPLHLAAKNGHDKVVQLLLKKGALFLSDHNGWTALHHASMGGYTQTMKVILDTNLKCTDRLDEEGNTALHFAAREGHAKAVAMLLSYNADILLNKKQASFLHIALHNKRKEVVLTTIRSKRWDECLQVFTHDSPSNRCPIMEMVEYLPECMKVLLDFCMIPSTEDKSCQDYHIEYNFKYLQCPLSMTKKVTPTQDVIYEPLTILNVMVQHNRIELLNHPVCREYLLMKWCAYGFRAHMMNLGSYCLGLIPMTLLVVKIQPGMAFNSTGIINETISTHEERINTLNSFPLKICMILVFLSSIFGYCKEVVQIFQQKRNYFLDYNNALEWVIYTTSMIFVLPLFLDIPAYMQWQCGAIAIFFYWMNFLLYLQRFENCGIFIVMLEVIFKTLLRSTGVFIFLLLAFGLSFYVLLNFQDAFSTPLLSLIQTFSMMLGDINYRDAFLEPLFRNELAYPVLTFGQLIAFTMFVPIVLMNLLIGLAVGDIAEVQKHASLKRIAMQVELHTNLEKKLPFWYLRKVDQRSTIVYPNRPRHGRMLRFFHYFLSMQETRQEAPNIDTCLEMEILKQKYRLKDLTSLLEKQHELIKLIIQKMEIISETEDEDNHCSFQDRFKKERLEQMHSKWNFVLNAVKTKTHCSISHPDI

Row | Structure (SMILES) | Maximal potentiating effect lower than that of Ms 9a-1 [1] | Diclofenac-induced inward current potentiated up to (maximal, % of control) ([1]; inward current at −100 mV) | EC50 [1, 3] | Diclofenac-induced outward current potentiated up to (maximal, % of control) ([1]; outward current at +100 mV) | EC50 [1, 4] | EC50 (TRPA1-expressing oocytes; X. laevis oocytes, read-out: EC50 of current increase in TRPA1-expressing oocytes) | Effect on uninjected oocytes of X. laevis (TRPA1-expressing oocytes; uninjected oocytes) | Increase of effective concentration (EC50) for inward current compared to Ms 9a-1 ([1]; inward current, relative to Ms 9a-1) | Pain or thermal hyperalgesia caused in vivo [2]
1 | CC[C@H](C)[C@@H]1NC(=O)[C@H](CCCNC(=N)N)NC(=O)[C@H](C(C)C)NC(=O)[C@@H]2CSSC[C@H](NC(=O)CNC(=O)CNC(=O)[C@@H](NC(=O)[C@@H](NC(=O)[C@@H](NC(=O)[C@@H](N)CC(N)=O)[C@@H](C)CC)[C@@H](C)CC)C(C)C)C(=O)N[C@@H](CO)C(=O)N[C@@H](CCCCN)C(=O)N[C@@H](CSSC[C@@H](C(=O)NCC(=O)N[C@H](C(=O)O)C(C)C)NC(=O)CNC(=O)[C@H](C)NC1=O)C(=O)N[C@@H](Cc1c[nH]cn1)C(=O)N[C@@H]([C@@H](C)O)C(=O)N[C@@H](CCC(=O)O)C(=O)N[C@@H](CC(=O)O)C(=O)N[C@@H](CO)C(=O)N[C@@H](CC(N)=O)C(=O)NCC(=O)N[C@@H](CC(N)=O)C(=O)N2 [Ms 9a-3] (H-NIIVGGCSKCHTEDSNGNCVRIAGCGV-OH; disulfide 7-19, 10-25) | 15–30% | 159% | 5440 ± 2900 nM | 175% | 7800 ± 600 nM | – | – | – | –
2 | O=C(O)Cc1ccccc1Nc1c(Cl)cccc1Cl [Diclofenac] | – | – | – | – | – | 210000 nM | no effect | – | –
3 | CC[C@H](C)[C@@H]1NC(=O)[C@H](CCCNC(=N)N)NC(=O)[C@H](C(C)C)NC(=O)[C@@H]2CSSC[C@H](NC(=O)CNC(=O)CNC(=O)[C@@H](NC(=O)[C@@H](NC(=O)[C@@H](NC(=O)[C@@H](N)CC(N)=O)[C@@H](C)CC)[C@@H](C)CC)C(C)C)C(=O)N[C@@H](CO)C(=O)N[C@@H](CCCCN)C(=O)N[C@@H](CSSC[C@@H](C(=O)NCC(=O)N[C@H](C(=O)O)C(C)C)NC(=O)CNC(=O)[C@H](C)NC1=O)C(=O)N[C@@H](Cc1c[nH]cn1)C(=O)N[C@@H](CCCCN)C(=O)N[C@@H](CCC(N)=O)C(=O)N[C@@H](CC(=O)O)C(=O)N[C@@H](CO)C(=O)N[C@@H](CO)C(=O)NCC(=O)N[C@@H](CC(N)=O)C(=O)N2 [Ms 9a-2] (H-NIIVGGCSKCHKQDSSGNCVRIAGCGV-OH; disulfide 7-19, 10-25) | 45–50% | 139% | 412 ± 48 nM | 131% | 606 ± 201 nM | – | – | 3 times | –
4 | CC[C@H](C)[C@@H]1NC(=O)[C@@H](NC(=O)CNC(=O)CNC(=O)[C@@H](NC(=O)[C@@H](NC(=O)[C@@H](NC(=O)[C@@H](N)CC(N)=O)[C@@H](C)CC)[C@@H](C)CC)C(C)C)CSSC[C@@H]2NC(=O)[C@H](CCCNC(=N)N)NC(=O)CNC(=O)[C@H](CO)NC(=O)[C@H](C)NC(=O)[C@H](CC(N)=O)NC(=O)[C@H](CCCCN)NC(=O)[C@H](C(C)C)NC(=O)[C@H](Cc3c[nH]cn3)NC(=O)[C@H](CSSC[C@@H](C(=O)NCC(=O)N[C@H](C(=O)N[C@@H](CC(=O)O)C(=O)N[C@@H](CCCCN)C(=O)N[C@H](C(=O)N3CCC[C@H]3C(=O)N[C@@H](CC(=O)O)C(=O)N[C@@H](CC(C)C)C(=O)N[C@@H](Cc3ccccc3)C(=O)N[C@@H](CO)C(=O)O)C(C)C)C(C)C)NC(=O)CNC(=O)[C@H](C(C)C)NC(=O)[C@H]([C@@H](C)CC)NC(=O)[C@H](CCCNC(=N)N)NC(=O)[C@H](C(C)C)NC2=O)NC(=O)[C@H](CCCCN)NC1=O [Ms 9a-1] (H-NIIVGGCIKCHVKNASGRCVRIVGCGVDKVPDLFS-OH; disulfide 7-19, 10-25) | – | 190% | 210 ± 3 nM | 175% | 32 ± 7 nM | – | – | – | does not cause pain or thermal hyperalgesia
